This is an account of results in patent publication US20240368133A1, “Compounds for the Treatment of Pain, in Particular, Neuropathic Pain, and/or Other Diseases or Disorders that are Associated with AT2R and/or AT2R Mediated Signaling” (Confo Therapeutics N.V., priority 2021, published 2024).

The target of one experiment is human AT2R fused to Cb23 (Homo sapiens, UniProt P50052). The experiment can be described thus: Radioligand binding assay, displacement of 125I-[Sar1, Ile8]-Angiotensin II, hAT2R Cb23. The conditions noted are these: displacement of 125I-[Sar1, Ile8]-Angiotensin II, human AT2R fused to Cb23, HEK-293 cell membrane preparations; read-out: Binding affinity on hAT2R_Cb23 IC50. As for the experimental part: (§1) All synthesized ligands were evaluated in a radioligand assay by displacing ^125I-[Sar1, Ile8]-Angiotensin II (Perkin Elmer, NEX248050UC) from human AT2R fused to Cb23 or human/rodent/cynomolgus/minipig/dog WT AT2R in HEK-293 cells membrane preparations, using C21 (Vicore Pharma) and Angiotensin II (endogenous ligand) as reference. The affinity was determined using an eight-point dose-response curve, each point performed in duplicates. The compounds were also evaluated in a counterscreen binding assay for displacement of ^125I-[Sar1, Ile8]-Angiotensin II binding to human AT1R in HEK-293 cell membranes. For AT1R, the percent displacement was determined at 1 μM and […] (in duplicates) or using an eight-point dose-response curve, each point performed in duplicates with Candesartan and Losartan used as reference.
Chain of human AT2R fused to Cb23 (P50052 whole entry, looked up, the tested form may be a part): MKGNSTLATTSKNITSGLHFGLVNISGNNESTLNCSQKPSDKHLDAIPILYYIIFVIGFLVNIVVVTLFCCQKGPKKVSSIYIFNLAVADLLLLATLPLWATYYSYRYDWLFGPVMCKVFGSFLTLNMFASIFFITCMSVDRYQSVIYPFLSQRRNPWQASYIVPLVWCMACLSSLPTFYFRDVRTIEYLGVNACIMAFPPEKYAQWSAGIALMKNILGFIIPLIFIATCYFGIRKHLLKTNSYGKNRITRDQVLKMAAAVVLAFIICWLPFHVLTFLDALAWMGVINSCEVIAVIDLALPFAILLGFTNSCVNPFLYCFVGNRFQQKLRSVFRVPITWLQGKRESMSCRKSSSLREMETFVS
(§2) For the AT2R/AT1R binding assays, cell membranes, expressing AT2R_Cb23, AT2R or AT1R, were incubated with 0.05 nM ^125I-[Sarl, Ile8]-Ang II. The ligand competition assay was performed in a total volume of 100 μL assay buffer (50 mM Tris, 5 mM MgCl2, 1 mM EDTA, 0.1% BSA, pH 7.4), at concentrations ranging from […] to 10 μM. For each experiment, each ligand concentration was tested in duplicate. Non-specific binding (NSB) was determined by the inclusion of 10 μM unlabeled [Sarl]-Ang II (Sigma Aldrich). The reaction was initiated by the addition of radioligand, after which the plates were incubated at 25° C. for one hour. The reaction was terminated by rapid filtration using a vacuum harvester, applying six washes with 100 μL of ice-cold wash buffer (50 mM Tris.HCl, pH 7.4). The filter plates GF/C (Perkin Elmer) were pre-soaked in 0.5% PEI. The residual amount of radioactivity was determined via liquid scintillation counting. IC50 values, representing the concentration at which each ligand displaced 50% of ^125I-[Sarl, Ile8]-Ang II, were calculated using GraphPad Prism 7.02 by applying a Non-linear regression equation (variable slope, four parameters) on the data. The obtained values serve as affinity estimates for each ligand and their ability to compete against the radioligand for binding with AT2R or AT1R, respectively.
(In general: Loss of bound radioactivity is the signal in a displacement assay; it reports binding, not function.)

Another experiment addresses human AT1R (Homo sapiens (Human), UniProt P30556). The experiment can be described thus: Counterscreen radioligand binding assay, displacement of 125I-[Sar1, Ile8]-Angiotensin II, hAT1R WT. The conditions noted are these: for inhibition at 1 µM / inhibition at 10 µM: 125I-[Sar1, Ile8]-Ang II, semi-quantitative score; for inhibition at 1 µM: compound at 1 μM, read-out: % Displaced radioligand at 1 μM; for inhibition at 10 µM: compound at 10 μM, read-out: % Displaced radioligand at 10 μM; for IC50: HEK-293 cell membranes, read-out: Binding affinity On hAT1R IC50. As for the experimental part:
as §1, §2
(In general: Counterscreens check selectivity or assay interference.)

Chain of human AT1R (P30556 whole entry): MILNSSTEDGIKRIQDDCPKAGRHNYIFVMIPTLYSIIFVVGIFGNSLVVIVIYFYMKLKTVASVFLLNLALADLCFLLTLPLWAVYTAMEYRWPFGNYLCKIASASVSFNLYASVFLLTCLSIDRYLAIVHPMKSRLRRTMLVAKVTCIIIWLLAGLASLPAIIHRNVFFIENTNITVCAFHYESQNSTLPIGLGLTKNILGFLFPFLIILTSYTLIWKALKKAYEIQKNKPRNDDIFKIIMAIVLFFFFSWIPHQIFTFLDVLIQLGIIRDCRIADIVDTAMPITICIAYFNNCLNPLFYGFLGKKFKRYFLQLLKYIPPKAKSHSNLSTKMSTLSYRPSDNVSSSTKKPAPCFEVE

What is called IC50 is the concentration at which inhibition is half-maximal. As to `CCS(=O)(=O)NC(=O)c1ccccc1CN1CCN(c2nc3ccccc3s2)CC1` [Compound A-02, 2-[[4-(1,3-benzo-thiazol-2-yl)piper-azin-1-yl]methyl]-N-ethylsulfonyl-benzamide], the IC50 on human AT2R fused to Cb23 was 6.21 µM. For the same compound, at human AT1R, the inhibition at 1 µM is < 30% and the inhibition at 10 µM was < 30%.
Turning to `c1ccc(-c2nn[nH]n2)c(CN2CCN(c3nc4ccccc4s3)CC2)c1` [Compound A-03, 2-[4-[[2-(2H-tetrazol-5-yl)phen-yl]-methyl]piper-azin-1-yl]-1,3-benzothiazole], the IC50 at human AT2R fused to Cb23 amounted to 15.9 µM. Moreover, at human AT1R, the inhibition at 1 µM is < 30% and the inhibition at 10 µM was < 30%.
On to `c1ccc(N2CCN(Cc3nc4ccccc4s3)CC2)c(-c2nn[nH]n2)c1` [Compound A-05, 2-[[4-[2-(2H-tetrazol-5-yl)phen-yl]piperazin-1-yl]-methyl]-1,3-benzo-thiazole], for which the IC50 at human AT2R fused to Cb23 was determined as 34.1 µM. At human AT1R, the inhibition at 1 µM was < 30%, the inhibition at 10 µM was < 30% and the IC50 worked out at 49.9 µM.
As to `c1ccc(N2CCC(Cc3nc4ccccc4s3)CC2)c(-c2nn[nH]n2)c1` [Compound A-06, 2-[[1-[2-(2H-tetrazol-5-yl)phen-yl]-4-piperidyl]-methyl]-1,3-benzo-thiazole], the IC50 at human AT2R fused to Cb23 came to 16.5 µM. In addition, on human AT1R, the inhibition at 1 µM was < 30%, the inhibition at 10 µM lay within 30 to 50% and the IC50 amounted to 25.4 µM.
For `CCOC(=O)NS(=O)(=O)c1ccc(C(F)(F)F)cc1N1CCN(Cc2nc3ccccc3n2C)CC1` [Compound A-08, ethyl N-[2-[4-[(1-methylbenzimidazol-2-yl)methyl]piperazin-1-yl]-4-(trifluoromethyl)phenyl]sulfonylcarbamate], in that order: 6.82 µM, < 30%, < 30% and 92.1 µM.
As to `Cc1ncc(CN2CCN(c3cc(CC(C)C)ccc3-c3nn[nH]n3)CC2)n1C` [Compound A-114, 1-[(2,3-dimethyl-imidazol-4-yl)meth-yl]-4-[5-isobutyl-2-(2H-tetrazol-5-yl)-phenyl]piperazine], the IC50 at human AT2R fused to Cb23 is 18.7 µM.
Still for that read-out and setting: in the case of `COc1cc(N2CCN(Cc3nc4ccccc4s3)CC2)c(-c2nn[nH]n2)cc1F` [Compound A-117, 2-[[4-[4-fluoro-5-methoxy-2-(2H-tetrazol-5-yl)phen-yl]piperazin-1-yl]-methyl]-1,3-benzo-thiazole] it was 52.6 µM.
Turning to `Fc1cc(-c2nn[nH]n2)c(N2CCN(Cc3nc4ccccc4s3)CC2)cc1C1CC1` [Compound A-124, 2-[[4-[5-cycloprop-yl-4-fluoro-2-(2H-tetrazol-5-yl)phen-yl]piperazin-1-yl]-methyl]-1,3-benzo-thiazole], on human AT2R fused to Cb23, the IC50 was found to be 18.1 µM.
On the same count and under the same terms, then `Cc1cc(-c2nn[nH]n2)c(N2CCN(Cc3nc4ccccc4s3)CC2)cc1C1CC1` [Compound A-126, 2-[[4-[5-cycloprop-yl-4-methyl-2-(2H-tetrazol-5-yl)phen-yl]piperazin-1-yl]-methyl]-1,3-benzo-thiazole], with 22.6 µM; and `CCNc1cc(-c2nn[nH]n2)c(N2CCN(Cc3nc4ccccc4s3)CC2)cc1C1CC1` [Compound A-130, 4-[4-(1,3-benzothi-azol-2-ylmethyl)-piperazin-1-yl]-2-cyclopropyl-N-eth-yl-5-(2H-tetrazol-5-yl)aniline], with 28.8 µM.
In the case of `CC(=O)Nc1cc(-c2nn[nH]n2)c(N2CCN(Cc3nc4ccccc4s3)CC2)cc1C1CC1` [Compound A-131, N-[4-[4-(1,3-benzo-thiazol-2-ylmethyl)-piperazin-1-yl]-2-cyclopropyl-5-(2H-tetrazol-5-yl)phen-yl]acetamide], the IC50 at human AT2R fused to Cb23 is 13.3 µM.
On to `CCc1cnc(-c2nn[nH]n2)c(N2CCN(Cc3nc4ccccc4s3)CC2)c1` [Compound A-141], for which the IC50 at human AT2R fused to Cb23 was 22.7 µM.
In the case of `c1ccc2sc(CN3CCN(c4cc(C5CC5)ncc4-c4nn[nH]n4)CC3)nc2c1` [Compound A-144, 2-[[4-[2-cycloprop-yl-5-(2H-tetrazol-5-yl)-4-pyridyl]piper-azin-1-yl]methyl]-1,3-benzothiazole], on human AT2R fused to Cb23, the IC50 was 14.8 µM.
For the compound `COc1cc(F)c(-c2nn[nH]n2)c(N2CCN(Cc3nc4ccccc4c(=O)[nH]3)CC2)c1` [Compound A-150, 2-[[4-[3-fluoro-5-methoxy-2-(2H-tetrazol-5-yl)phen-yl]piperazin-1-yl]-methyl]-3H-quin-azolin-4-one], the IC50 at human AT2R fused to Cb23 worked out at 33.8 µM.
Regarding `COc1cc(F)c(-c2nn[nH]n2)c(N2CCN(Cc3cccnn3)CC2)c1` [Compound A-155, 3-[[4-[3-fluoro-5-methoxy-2-(2H-tetrazol-5-yl)phen-yl]piperazin-1-yl]-methyl]pyridazine], the IC50 on human AT2R fused to Cb23 is 72.8 µM.
Still for that read-out and setting: in the case of `CC(C)Oc1cc(F)c(-c2nn[nH]n2)c(N2CCN(Cc3cccnn3)CC2)c1` [Compound A-156, 3-[[4-[3-fluoro-5-isopropoxy-2-(2H-tetrazol-5-yl)phen-yl]piperazin-1-yl]-methyl]pyridazine] it was 11.6 µM; in that of `CC(C)Oc1ccc(-c2nn[nH]n2)c(N2CCN(Cc3cccnn3)CC2)c1F` [Compound A-157, 3-[[4-[2-fluoro-3-isopropoxy-6-(2H-tetrazol-5-yl)phen-yl]piperazin-1-yl]-methyl]pyridazine], 34.4 µM.
Same read-out and setting: then `CCc1cc(-c2nn[nH]n2)c(N2CCN(Cc3cccnn3)CC2)cc1OC(C)C` [Compound A-158, 3-[[4-[4-ethyl-5-isopropoxy-2-(2H-tetrazol-5-yl)phen-yl]piperazin-1-yl]-methyl]pyridazine], with 44 µM.
The same measure, in the same setting: in the case of `CCOc1cc(-c2nn[nH]n2)c(N2CCN(Cc3cccnn3)CC2)cc1OC(C)C` [Compound A-162, 3-[[4-[4-ethoxy-5-isopropoxy-2-(2H-tetrazol-5-yl)phen-yl]piperazin-1-yl]-methyl]pyridazine] it was 20.7 µM; in that of `Cc1cc(-c2nn[nH]n2)c(N2CCN(Cc3cccnn3)CC2)cc1CC(C)C` [Compound A-166, 3-[[4-[5-isobutyl-4-methyl-2-(2H-tetrazol-5-yl)phen-yl]piperazin-1-yl]-methyl]pyridazine], 22.1 µM.
Turning to `CC(C)Cc1cc(F)c(-c2nn[nH]n2)c(N2CCC(Cc3ccccn3)CC2)c1` [Compound A-237, 2-[[1-[3-fluoro-5-isobutyl-2-(2H-tetrazol-5-yl)phenyl]-4-piperidyl]methyl]pyridine], on human AT2R fused to Cb23, the IC50 is 0.442 µM.
For `CC(C)Cc1ccc(-c2nn[nH]n2)c(CN2CCN(Cc3cccnn3)CC2)c1` [Compound A-238, 3-[[4-[[5-isobutyl-2-(2H-tetrazol-5-yl)phenyl]methyl]-piperazin-1-yl]-methyl]pyridazine], the IC50 at human AT2R fused to Cb23 turned out to be 18.8 µM.
On the same count and under the same terms, then `CCc1nc2ccccc2c(=O)n1CC1CCN(c2ccccc2-c2nn[nH]n2)CC1` [Compound A-240, 2-ethyl-3-[[1-[2-(2H-tetrazol-5-yl)-phenyl]-4-piperid-yl]methyl]quin-azolin-4-one], with 36.2 µM; and `CCc1nc2ccccc2c(=O)n1CC1CCN(c2ccccc2C(=O)NS(=O)(=O)CC)CC1` [Compound A-241, 2-[4-[(2-ethyl-4-oxo-quinazolin-3-yl)methyl]-1-piperidyl]-N-ethyl-sulfonyl-benzamide], with 42.5 µM; and `CCc1nc2ccc([N+](=O)[O-])cc2c(=O)n1CC1CCN(c2ccccc2-c2nn[nH]n2)CC1` [Compound A-242, 2-ethyl-6-nitro-3-[[1-[2-(2H-tetrazol-5-yl)phenyl]-4-piperidyl]methyl]quinazolin-4-one], with 27.7 µM.
In the case of `CCc1nc2ccc(NC(=O)C3CC3)cc2c(=O)n1CC1CCN(c2ccccc2-c2nn[nH]n2)CC1` [Compound A-247, N-[2-ethyl-4-oxo-3-[[1-[2-(2H-tetrazol-5-yl)phenyl]-4-piperidyl]methyl]-quinazolin-6-yl]-cyclopropane-carboxamide], the IC50 at human AT2R fused to Cb23 is 35.3 µM.
As for `O=c1c2ccccc2nc(-c2ccccc2)n1CC1CCN(c2ccccc2-c2nnn[nH]2)CC1` [Compound A-249, 2-phenyl-3-[[1-[2-(2H-tetrazol-5-yl)phenyl]-4-piperidyl]methyl]quinazolin-4-one], on human AT2R fused to Cb23, the IC50 came to 79 µM.
